Measured values as given in ChEMBL document CHEMBL1201862, “PubChem BioAssay data set” (2004).
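Cultured in 96-well plates, cells were exposed to test compound for 48 hours across five concentrations. GI50: concentration for 50% inhibition of growth.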 Active and inactive are the calls of the source. Rule as the data show it: active = GI50 up to about 1.1 µM and inactive = higher.

What was measured:
Assay in all cases: NCI anticancer screen, dose series, 48 h
[1] = tested on: UO-31
[2] = tested on: SF-539
[3] = tested on: SNB-19
[4] = tested on: SW-620
[5] = tested on: SF-268
[6] = tested on: U-251
[7] = tested on: NCI-H460
[8] = tested on: M14
[9] = tested on: HOP-92
[10] = tested on: SK-MEL-2
[11] = tested on: SN12C
[12] = tested on: CCRF-CEM
[13] = tested on: HCT-116
[14] = tested on: UACC-257
[15] = tested on: OVCAR-4
[16] = tested on: CAKI-1
[17] = tested on: COLO 205
[18] = tested on: NCI-H23
[19] = tested on: NCI-H522

Measured: GI50

O=C1C(=O)N(c2ccc(Cl)cc2Cl)C(=O)C(=O)C1c1nc2ccccc2o1
inactive: [1] > 100 µM | [2] > 100 µM | [3] > 100 µM | [4] > 100 µM | [5] > 100 µM | [6] > 100 µM | [7] > 100 µM | [8] > 100 µM | [9] > 100 µM | [10] > 100 µM | [11] > 100 µM | [12] 93.8 µM | [13] > 100 µM | [14] > 100 µM | [15] > 100 µM | [16] > 100 µM | [17] > 100 µM | [18] > 100 µM | [19] > 100 µM

NC1=NC2=C(CCCC2)C(c2cccs2)S1 (configuration not stated)
inactive: [1] 5.43 µM | [2] > 100 µM | [3] > 100 µM | [4] > 100 µM | [5] 95.1 µM | [6] > 100 µM | [7] > 100 µM | [8] > 100 µM | [9] 47.8 µM | [10] > 100 µM | [11] > 100 µM | [12] 55 µM | [13] > 100 µM | [14] 49.7 µM | [15] 86.5 µM | [16] > 100 µM | [17] > 100 µM | [18] > 100 µM | [19] 27.9 µM

CN(C)CCN1N=Nc2cccc3cccc1c23
inactive: [1] > 100 µM | [2] > 100 µM | [3] > 100 µM | [4] 25.1 µM | [5] > 100 µM | [6] > 100 µM | [7] 37.5 µM | [8] > 100 µM | [9] > 100 µM | [10] > 100 µM | [11] > 55.5 µM | [12] > 47 µM | [13] 57.1 µM | [14] > 100 µM | [15] 72.9 µM | [16] 69.7 µM | [17] 68.4 µM | [18] > 100 µM | [19] 54.2 µM

CC(C)(C)C1CCC2c3c([nH]c4ncccc34)C3C(=O)N(c4ccccc4)C(=O)C3C2C1 (configuration not stated)
inactive: [1] > 100 µM | [2] > 100 µM | [3] > 100 µM | [4] > 100 µM | [5] > 100 µM | [6] > 100 µM | [7] > 100 µM | [8] > 100 µM | [9] > 100 µM | [10] > 100 µM | [11] 88.1 µM | [12] 49.7 µM | [13] > 100 µM | [14] > 100 µM | [15] > 100 µM | [16] > 100 µM | [17] > 100 µM | [18] > 100 µM | [19] 89.3 µM

CSc1ccc(-c2cn3ccsc3n2)c(O)c1
inactive: [1] 59.8 µM | [2] 32.7 µM | [3] > 61.5 µM | [4] 36.1 µM | [5] 36.7 µM | [6] 46 µM | [7] 13.6 µM | [8] > 59.6 µM | [9] 47.3 µM | [10] > 85.3 µM | [11] > 79.1 µM | [12] 16.1 µM | [13] 30.3 µM | [14] > 24.2 µM | [15] > 49.4 µM | [16] > 100 µM | [17] > 44.5 µM | [18] 48.3 µM | [19] 37.2 µM

O=C(NCCCN1CCN(CCCNC(=O)Nc2cc(Cl)ccc2Cl)CC1)Nc1cc(Cl)ccc1Cl
inactive: [1] > 100 µM | [2] 44.5 µM | [3] 46.3 µM | [4] > 100 µM | [5] 87.3 µM | [6] 50.7 µM | [7] > 100 µM | [8] 27.4 µM | [9] 50.6 µM | [10] > 100 µM | [11] 83 µM | [12] > 100 µM | [13] 79.3 µM | [14] 16.5 µM | [15] 34 µM | [16] > 100 µM | [17] 45.5 µM | [18] 87.7 µM | [19] 38.6 µM

O=c1c(Br)cc2nc3ccccc3sc-2c1Br
inactive: [1] > 100 µM | [2] > 83.9 µM | [3] > 100 µM | [4] 68.1 µM | [5] 72.1 µM | [6] > 80.7 µM | [7] > 100 µM | [8] > 100 µM | [9] 50 µM | [10] > 100 µM | [11] > 100 µM | [12] 23.8 µM | [13] > 100 µM | [14] 31.3 µM | [15] 24 µM | [16] > 100 µM | [17] 36.3 µM | [18] 29.9 µM | [19] 15.8 µM

CCC(O)CCCCCCCCCCCCCCC(=O)O (configuration not stated)
inactive: [1] > 100 µM | [2] > 100 µM | [3] > 100 µM | [4] > 100 µM | [5] > 100 µM | [6] > 100 µM | [7] > 100 µM | [8] > 100 µM | [9] > 100 µM | [10] > 100 µM | [11] > 100 µM | [12] > 100 µM | [13] > 100 µM | [14] > 100 µM | [15] > 100 µM | [16] > 100 µM | [17] > 100 µM | [18] > 100 µM | [19] > 100 µM

CN(C)c1ccc(C(C#N)NNC(=O)Cc2ccccc2)cc1 (configuration not stated)
inactive: [1] > 100 µM | [2] > 100 µM | [4] > 100 µM | [5] > 100 µM | [6] > 100 µM | [7] > 100 µM | [8] > 100 µM | [9] > 100 µM | [10] > 100 µM | [11] > 100 µM | [12] > 100 µM | [13] > 100 µM | [14] > 100 µM | [15] > 100 µM | [16] > 100 µM | [17] > 100 µM | [18] > 100 µM | [19] > 100 µM

CC1=C(c2cc(C(=O)Nc3ccc(Cl)cc3)nc(S)n2)Sc2ccccc2N1
inactive: [1] > 100 µM | [2] > 100 µM | [3] > 100 µM | [4] > 100 µM | [5] > 100 µM | [6] > 100 µM | [7] > 100 µM | [8] > 100 µM | [9] > 100 µM | [10] > 100 µM | [11] > 100 µM | [12] > 100 µM | [13] > 100 µM | [14] > 100 µM | [15] > 100 µM | [16] > 100 µM | [17] > 100 µM | [18] > 100 µM | [19] > 100 µM

CC(N)C(C)c1ccccc1 (configuration not stated)
inactive: [1] > 100 µM | [2] > 100 µM | [3] > 100 µM | [4] > 100 µM | [5] > 100 µM | [6] > 100 µM | [7] > 100 µM | [8] > 100 µM | [9] > 100 µM | [10] > 100 µM | [11] > 100 µM | [12] > 100 µM | [13] > 100 µM | [14] > 100 µM | [15] > 100 µM | [16] > 100 µM | [17] > 100 µM | [18] > 100 µM | [19] > 100 µM

Nc1c(-c2ccc(Cl)cc2)[n+]([O-])c2ccccc2[n+]1[O-]
inactive: [1] 5.86 µM | [2] > 100 µM | [3] 34.8 µM | [4] > 100 µM | [5] 59.8 µM | [6] 62.2 µM | [7] 94.2 µM | [8] > 100 µM | [9] 28.1 µM | [10] > 100 µM | [11] 95.1 µM | [12] 54.5 µM | [14] 58.5 µM | [15] 69.3 µM | [16] > 100 µM | [17] > 100 µM | [18] 54.6 µM | [19] 25.3 µM

CC[N+](CC)(CC)Cc1cn(S(=O)(=O)c2ccccc2)c2ccccc12
inactive: [1] > 100 µM | [2] > 100 µM | [3] > 100 µM | [4] > 100 µM | [5] > 100 µM | [6] > 100 µM | [7] > 100 µM | [8] > 100 µM | [9] > 100 µM | [10] > 100 µM | [12] > 100 µM | [13] > 100 µM | [14] > 100 µM | [15] > 100 µM | [16] > 100 µM | [17] > 100 µM | [18] > 100 µM | [19] > 100 µM

Cc1cc(NS(=O)(=O)c2ccc(NC(=O)c3cccc4c(Nc5ccc(S(=O)(=O)Nc6cc(C)on6)cc5)c5ccc(Cl)cc5nc34)cc2)no1
inactive: [1] 25.3 µM | [2] 37.7 µM | [3] 28.1 µM | [4] 76.7 µM | [5] 34.5 µM | [6] 35.5 µM | [7] 65 µM | [8] 32.1 µM | [9] 24.3 µM | [10] > 100 µM | [11] 51.2 µM | [12] 41.9 µM | [13] 23.2 µM | [14] > 100 µM | [15] 49.5 µM | [16] > 100 µM | [17] 56.1 µM | [18] 45.1 µM | [19] 31.4 µM

CCCCCCCCCCCCCC/C(C(=O)OC)=C(/O)C(=O)OCC
inactive: [1] 23.6 µM | [2] > 100 µM | [3] 40.9 µM | [4] > 100 µM | [5] 25.8 µM | [6] 26.3 µM | [7] 37.8 µM | [8] 20.2 µM | [9] 25.5 µM | [10] 16.6 µM | [11] > 100 µM | [12] 42.5 µM | [13] 47.6 µM | [14] 63.5 µM | [15] 58.9 µM | [16] 31.4 µM | [17] 90.8 µM | [18] > 100 µM | [19] 43.3 µM
